Reference: US9475817B2 (BRISTOL-MYERS SQUIBB COMPANY, priority 2012, dated 2016)

Legend:
[1] = molecular target: CK1ε (Homo sapiens (Human), UniProt P49674); test: CK1ε kinase assay (Caliper LabChip, fluoresceinated peptide substrate); type: biochemical; details: 200 pM CK1ε, 50 μM ATP, 1.5 μM peptide substrate, 22 hours room temperature
Method: (§1) CK1ε and CK1δ Kinase Assays
(§2) The kinase assay was performed in V-bottom 384-well plates. […] The reaction was incubated at room temperature for 22 hours and terminated by adding 45 μl of 35 mM EDTA to each sample. […] Compounds were dissolved at 10 mM in dimethylsulfoxide (DMSO) and evaluated at eleven concentrations. IC50 values were derived by non-linear regression analysis.

[2] = molecular target: CK1δ (Homo sapiens (Human), UniProt P48730); test: CK1δ kinase assay (Caliper LabChip, fluoresceinated peptide substrate); type: biochemical; details: 200 pM CK1δ, 50 μM ATP, 1.5 μM peptide substrate, 22 hours room temperature
CK1δ, sequence (P48730 whole entry): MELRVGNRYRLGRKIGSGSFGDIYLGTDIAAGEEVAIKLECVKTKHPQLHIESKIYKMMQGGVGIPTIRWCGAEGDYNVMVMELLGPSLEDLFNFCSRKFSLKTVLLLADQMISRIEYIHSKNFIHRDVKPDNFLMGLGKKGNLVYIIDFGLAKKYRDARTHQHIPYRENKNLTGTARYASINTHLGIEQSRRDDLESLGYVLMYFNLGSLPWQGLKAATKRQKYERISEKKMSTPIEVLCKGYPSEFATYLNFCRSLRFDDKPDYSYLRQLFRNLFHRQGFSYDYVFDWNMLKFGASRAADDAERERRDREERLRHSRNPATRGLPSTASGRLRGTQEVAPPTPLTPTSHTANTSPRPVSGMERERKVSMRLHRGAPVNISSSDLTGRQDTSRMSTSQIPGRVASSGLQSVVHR
Method: as §1, §2

CK1ε, sequence (P49674 whole entry): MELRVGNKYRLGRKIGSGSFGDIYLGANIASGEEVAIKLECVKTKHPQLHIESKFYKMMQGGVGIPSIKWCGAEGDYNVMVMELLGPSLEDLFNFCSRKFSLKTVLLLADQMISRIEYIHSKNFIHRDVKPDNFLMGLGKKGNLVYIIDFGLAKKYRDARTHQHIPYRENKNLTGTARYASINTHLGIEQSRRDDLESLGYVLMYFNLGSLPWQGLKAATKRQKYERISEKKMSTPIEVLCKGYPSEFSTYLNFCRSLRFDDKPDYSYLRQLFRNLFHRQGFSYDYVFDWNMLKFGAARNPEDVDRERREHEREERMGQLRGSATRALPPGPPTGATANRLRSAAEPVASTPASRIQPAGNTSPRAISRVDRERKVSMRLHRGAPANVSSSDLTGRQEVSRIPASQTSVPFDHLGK

Row | SMILES | IC50 [1] | IC50 [2]
1 | Cn1nc(-c2ccc(F)cc2)c(-c2ccc3nc(NC(=O)c4ccnc(F)c4)cn3n2)c1N1CCN(CC(N)=O)CC1 [Compound 124, N-(6-(5-(4-(2-Amino-2-oxoethyl)piperazin-1-yl)-3-(4-fluorophenyl)-1-methyl-1H-pyrazol-4-yl)imidazo[1,2-b]pyridazin-2-yl)-2-fluoroisonicotinamide] | 1.3 nM | 0.2 nM
2 | Cn1cc(-c2ccc3nc(NC(=O)c4cc(Cl)ccc4F)cn3n2)c(-c2ccc(F)cc2)n1 [Compound 47, 5-chloro-2-fluoro-N-(6-(3-(4-fluorophenyl)-1-methyl-1H-pyrazol-4-yl)imidazo[1,2-b]pyridazin-2-yl)benzamide] | 19.9 nM | 5.2 nM
3 | Cn1cc(-c2ccc3nc(NC(=O)C45CC6CC(CC(C6)C4)C5)cn3n2)c(-c2ccc(F)cc2)n1 [Compound 93, (3,5,7)-N-(6-(3-(4-fluorophenyl)-1-methyl-1H-pyrazol-4-yl)imidazo[1,2-b]pyridazin-2-yl)adamantane-1-carboxamide] | 6 nM | 4.1 nM
4 | Cn1cc(-c2ccc3nc(NC(=O)C4CCOCC4)cn3n2)c(-c2ccc(F)cc2)n1 [Compound 40, N-(6-(3-(4-fluorophenyl)-1-methyl-1H-pyrazol-4-yl)imidazo[1,2-b]pyridazin-2-yl)tetrahydro-2H-pyran-4-carboxamide] | 18 nM | 5.4 nM
5 | Cn1cc(-c2ccc3nc(NC(=O)c4ccc(Br)cc4F)cn3n2)c(-c2ccc(F)cc2)n1 [Compound 42, 4-bromo-2-fluoro-N-(6-(3-(4-fluorophenyl)-1-methyl-1H-pyrazol-4-yl)imidazo[1,2-b]pyridazin-2-yl)benzamide] | 13.7 nM | 2.3 nM
6 | Cn1cc(-c2ccc3nc(NC(=O)c4ccccc4)c(Br)n3n2)c(-c2ccc(F)cc2)n1 [Compound 189, N-(3-Bromo-6-(3-(4-fluorophenyl)-1-methyl-1H-pyrazol-4-yl)imidazo[1,2-b]pyridazin-2-yl)benzamide] | 257 nM | 38.8 nM
7 | Cn1nc(-c2ccc(F)cc2)c(-c2ccc3nc(NC(=O)c4ccnc(N5CCOCC5)c4)cn3n2)c1-c1ccncc1 [Compound 203, N-(6-(3-(4-Fluorophenyl)-1-methyl-5-(pyridin-4-yl)-1H-pyrazol-4-yl)imidazo[1,2-b]pyridazin-2-yl)-2-morpholinoisonicotinamide] | 7.9 nM | 0.9 nM
8 | Cc1nocc1C(=O)Nc1cn2nc(-c3cn(C)nc3-c3ccc(F)cc3)ccc2n1 [Compound 12, N-(6-(3-(4-fluorophenyl)-1-methyl-1H-pyrazol-4-yl)imidazo[1,2-b]pyridazin-2-yl)-3-methylisoxazole-4-carboxamide] | 28.8 nM | 7.3 nM
9 | Cn1nc(-c2ccc(F)cc2)c(-c2ccc3nc(NC(=O)c4ccnc(N5CCOCC5)c4)cn3n2)c1C1CCN(CCC(F)(F)F)CC1 [Compound 161, N-(6-(3-(4-Fluorophenyl)-1-methyl-5-(1-(3,3,3-trifluoropropyl)piperidin-4-yl)-1H-pyrazol-4-yl)imidazo[1,2-b]pyridazin-2-yl)-2-morpholinoisonicotinamide] | 22.9 nM | 1.7 nM
10 | CN1CCN(c2c(-c3ccc4nc(NC(=O)c5ccnc(F)c5)cn4n3)c(-c3ccc(F)cc3)nn2C)CC1 [Compound 116, 2-fluoro-N-(6-(3-(4-fluorophenyl)-1-methyl-5-(4-methylpiperazin-1-yl)-1H-pyrazol-4-yl)imidazo [1,2-b]pyridazin-2-yl)isonicotinamide] | 9.3 nM | 0.7 nM
11 | Cn1nc(-c2ccc(F)cc2)c(-c2ccc3nc(NC(=O)c4ccncc4)cn3n2)c1C1CCN(Cc2cocn2)CC1 [Compound 172, N-(6-(3-(4-fluorophenyl)-1-methyl-5-(1-(oxazol-4-ylmethyl)piperidin-4-yl)-1H-pyrazol-4-yl)imidazo[1,2-b]pyridazin-2-yl) isonicotinamide] | 10.4 nM | 4.5 nM
12 | Cc1nc(-c2ccncc2)sc1C(=O)Nc1cn2nc(-c3c(-c4ccc(F)cc4)nn(C)c3C3CCN(C)CC3)ccc2n1 [Compound 180, N-(6-(3-(4-Fluorophenyl)-1-methyl-5-(1-methylpiperidin-4-yl)-1H-pyrazol-4-yl)imidazo[1,2-b]pyridazin-2-yl)-4-methyl-2-(pyridin-4-yl)thiazole-5-carboxamide] | 7.1 nM | 2.1 nM

Results, then the compound that gave them:

Row | IC50 [1] | IC50 [2] | SMILES
13 | 4.6 nM | 0.6 nM | Cn1nc(-c2ccc(F)cc2)c(-c2ccc3nc(NC(=O)c4ccnc(F)c4)cn3n2)c1N1CCN(CCC#N)CC1 [Compound 125, N-(6-(5-(4-(2-Cyanoethyl)piperazin-1-yl)-3-(4-fluorophenyl)-1-methyl-1H-pyrazol-4-yl)imidazo[1,2-b]pyridazin-2-yl)-2-fluoroisonicotinamide]
14 | 0.9 nM | 1.7 nM | Cc1nc(-c2ccncc2)sc1C(=O)Nc1cn2nc(-c3c(-c4ccc(F)cc4)nn(C)c3C3CCN(Cc4ccon4)CC3)ccc2n1 [Compound 182, N-(6-(3-(4-fluorophenyl)-5-(1-(isoxazol-3-ylmethyl)piperidin-4-yl)-1-methyl-1H-pyrazol-4-yl)imidazo [1,2-b]pyridazin-2-yl)-4-methyl-2-(pyridin-4-yl)thiazole-5-carboxamide]
15 | 1 nM | 1.1 nM | Cn1nc(-c2ccc(F)cc2)c(-c2ccc3nc(NC(=O)c4ccnc(F)c4)cn3n2)c1C1CCN(Cc2ccon2)CC1 [Compound 150, 2-Fluoro-N-(6-(3-(4-fluorophenyl)-5-(1-(isoxazol-3-ylmethyl)piperidin-4-yl)-1-methyl-1H-pyrazol-4-yl)imidazo[1,2-b]pyridazin-2-yl)isonicotinamide]
16 | 18.7 nM | 3.6 nM | Cc1c[nH]nc1C(=O)Nc1cn2nc(-c3cn(C)nc3-c3ccc(F)cc3)ccc2n1 [Compound 34, N-(6-(3-(4-fluorophenyl)-1-methyl-1H-pyrazol-4-yl)imidazo[1,2-b]pyridazin-2-yl)-4-methyl-1H-pyrazol-3-carboxamide]
17 | 19.2 nM | 1.3 nM | Cn1cc(-c2ccc3nc(NC(=O)c4cc(Cl)nc5ccccc45)cn3n2)c(-c2ccc(F)cc2)n1 [Compound 2, 2-chloro-N-(6-(3-(4-fluorophenyl)-1-methyl-1H-pyrazol-4-yl)imidazo[1,2-b]pyridazin-2-yl)quinoline-4-carboxamide]
18 | 1.9 nM | 1.4 nM | Cn1nc(-c2ccc(F)cc2)c(-c2ccc3nc(NC(=O)c4ccncc4)cn3n2)c1C1CCN(C2CC2)CC1 [Compound 166, N-(6-(5-(1-cyclopropylpiperidin-4-yl)-3-(4-fluorophenyl)-1-methyl-1H-pyrazol-4-yl)imidazo[1,2-b]pyridazin-2-yl)isonicotinamide]
19 | 22.1 nM | 7.8 nM | COc1cccc(C(=O)Nc2cn3nc(-c4cn(C)nc4-c4ccc(F)cc4)ccc3n2)c1F [Compound 59, 2-fluoro-N-(6-(3-(4-fluorophenyl)-1-methyl-1H-pyrazol-4-yl)imidazo[1,2-b]pyridazin-2-yl)-3-methoxybenzamide]
20 | 1.5 nM | 1.3 nM | Cn1nc(-c2ccc(F)cc2)c(-c2ccc3nc(NC(=O)c4ccncc4)cn3n2)c1C1CCN(CCO)CC1 [Compound 168, N-(6-(3-(4-fluorophenyl)-5-(1-(2-hydroxyethyl)piperidin-4-yl)-1-methyl-1H-pyrazol-4-yl)imidazo[1,2-b]pyridazin-2-yl)isonicotinamide]
21 | 22.8 nM | 1.4 nM | Cn1nc(-c2ccc(F)cc2)c(-c2ccc3nc(NC(=O)c4cc(F)nc(F)c4)cn3n2)c1N1CCOCC1 [Compound 145, 2,6-difluoro-N-(6-(3-(4-fluorophenyl)-1-methyl-5-morpholino-1H-pyrazol-4-yl)imidazo[1,2-b]pyridazin-2-yl) isonicotinamide]
22 | 9.1 nM | 2.8 nM | Cn1cc(-c2ccc3nc(NC(=O)c4ccncc4F)cn3n2)c(-c2ccc(F)cc2)n1 [Compound 35, 3-fluoro-N-(6-(3-(4-fluorophenyl)-1-methyl-1H-pyrazol-4-yl)imidazo[1,2-b]pyridazin-2-yl)isonicotinamide]
23 | 13.6 nM | 6.1 nM | COc1cc(C(=O)Nc2cn3nc(-c4cn(C)nc4-c4ccc(F)cc4)ccc3n2)ccn1 [Compound 49, N-(6-(3-(4-fluorophenyl)-1-methyl-1H-pyrazol-4-yl)imidazo[1,2-b]pyridazin-2-yl)-2-methoxyisonicotinamide]
24 | 12.2 nM | 0.7 nM | Cc1nc(-c2cccnc2)sc1C(=O)Nc1cn2nc(-c3c(-c4ccc(F)cc4)nn(C)c3C3CCN(CCC(F)(F)F)CC3)ccc2n1 [Compound 177, N-(6-(3-(4-fluorophenyl)-1-methyl-5-(1-(3,3,3-trifluoropropyl)piperidin-4-yl)-1H-pyrazol-4-yl)imidazo[1,2-b]pyridazin-2-yl)-4-methyl-2-(pyridin-3-yl)thiazole-5-carboxamide]
25 | 28.1 nM | 4.4 nM | Cn1cc(-c2ccc3nc(NC(=O)c4ccc(OCC(F)(F)F)nc4)cn3n2)c(-c2ccc(F)cc2)n1 [Compound 68, N-(6-(3-(4-fluorrophenyl)-1-methyl-1H-pyrazol-4-yl)imidazo[1,2-b]pyridazin-2-yl)-6-(2,2,2-trifluoroethoxy)nicotinamide]
26 | 10.6 nM | 1.5 nM | Cn1nc(-c2ccc(F)cc2)c(-c2ccc3nc(NC(=O)c4ccnc(F)c4)cn3n2)c1N1CCN(C[C@H](O)C(F)(F)F)CC1 [Compound 128, (S)-2-Fluoro-N-(6-(3-(4-fluorophenyl)-1-methyl-5-(4-(3,3,3-trifluoro-2-hydroxypropyl)piperazin-1-yl)-1H-pyrazol-4-yl)imidazo[1,2-b]pyridazin-2-yl)isonicotinamide]
27 | 14.5 nM | 7.4 nM | Cn1cc(-c2ccc3nc(NC(=O)c4ccnnc4)cn3n2)c(-c2ccc(F)cc2)n1 [Compound 25, N-(6-(3-(4-fluorophenyl)-1-methyl-1H-pyrazol-4-yl)imidazo[1,2-b]pyridazin-2-yl)pyridazine-4-carboxamide]
